Experimental data from EP2881391A1, “Spiroindoline carbocycle derivatives and pharmaceutical compositions thereof” (Bayer Pharma Aktiengesellschaft, priority 2013, dated 2015).

target: T1, human GnRH receptor (Homo sapiens, UniProt P30968); experiment: IP-One HTRF assay (inhibition of GnRH-R activation by buserelin); type: cell-based; details: IP-One HTRF assay with buserelin (at EC80) stimulation; CHO cells stably expressing human GnRH receptor; tested 20 µM to 1 nM; read-out: Potency IC50
T1 construct: line established by Prof; Thomas Gudermann; host or cells: CHO cells
T1 sequence (P30968 1-328): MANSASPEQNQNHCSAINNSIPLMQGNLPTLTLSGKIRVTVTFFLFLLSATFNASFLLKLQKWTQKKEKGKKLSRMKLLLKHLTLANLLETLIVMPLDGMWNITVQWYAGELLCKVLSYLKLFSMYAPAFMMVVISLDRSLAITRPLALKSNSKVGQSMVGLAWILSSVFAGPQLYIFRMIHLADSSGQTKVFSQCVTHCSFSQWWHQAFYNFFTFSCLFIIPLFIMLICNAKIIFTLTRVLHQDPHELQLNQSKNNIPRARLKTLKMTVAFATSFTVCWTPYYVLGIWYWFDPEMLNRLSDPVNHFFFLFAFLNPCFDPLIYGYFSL
Text: By using homogenous time-resolved fluorescence resonance energy transfer (HTRF), the generation of one component of the GnRH-R signalling cascade can be measured. After stimulation of CHO cells stably expressing human GnRH receptor (established by Prof. Thomas Gudermann, currently University of Marburg, Germany; supplied as frozen cell aliquots by Cell Culture Services, Hamburg, Germany) with the EC80 of the GnRH agonist buserelin, Gq protein-coupled receptor signalling cascade is activated resulting in PLC-dependent cleavage of PIP2 to Inositol-1,4,5-triphosphate (IP3) and Diacylglycerol. The second messenger IP3 is degraded intracellularly to myo-inositol. Inhibition of the final degradation step from Inositol-1-phosphate (IP1) to myo-inositol by addition of lithium chloride leads to accumulation of IP1 in the cells. In cell lysates, IP1 can be detected via an antibody-based HTRF detection technology, where IP1 can displace the FRET acceptor IP1-d2 from binding by Terbium-labelled anti-IP1 antibody as donor resulting in a signal decrease. Compounds were tested for their capability of inhibiting GnRH-R activation by buserelin. For all IP-One HTRF® assays reagents of Cisbio Bioassays (IP-One Tb Jumbo kit, #62IPAPEJ; Cisbio Bioassays, Bagnols sur Cèze Cedex, France) were used.
For the assay, frozen cell aliquots were thawed and a cell suspension (3.33x10^6 cells/ml) containing IP1-d2 (dilution 1:40) was prepared and incubated at 37°C. After 1 h 3 µl of the cell suspension were added to 50 nl of a 100-fold concentrated solution of the test compound in DMSO pre-dispensed in a well of a white low-volume 384-well microtiter plate (Greiner Bio-One, Frickenhausen, Germany). The mixture was incubated for 20 min at 22°C to allow for pre-binding of the test compound to the GnRH-R. The receptor signaling cascade was stimulated by addition of 2 µl buserelin or LHRH (at EC50 or EC80) in stimulation buffer (10 mM Hepes pH 7.4, 1 mM CaCl2, 0.5 mM MgCl2, 4.2 mM KCI, 146 mM NaCl, 5.5 mM α-D-Glucose, 0.05% BSA, 125 mM LiCl (final assay concentration 50 mM) in aqua dest.). Plates were incubated for 1 h at 37°C and 5% carbon dioxide before the cells were lysed by adding 3 µl Terbium-labelled anti-IP1 antibody (1:40) diluted in Conjugate & Lysis buffer as supplied with the kit. After an incubation for 1 h at 22°C to enable complete cell lysis and antibody binding to free IP1 or IP1-d2, plates were measured in an HTRF reader, e.g. a RUBYstar, PHERAstar (both BMG Labtechnologies, Offenburg, Germany) or a Viewlux (PerkinElmer LAS, Rodgau-Jügesheim, Germany). From the fluorescence emissions at 665 nm (FRET) and at 620 nm (background signal of Terbium-antibody), the ratio (emission at 665 nm divided by emission at 620 nm) was calculated and the data were normalized (reaction without test compound = 0% inhibition; all other assay components except agonist = 100% inhibition). On the same microtiter plate, compounds were tested at 10 different concentrations in the range of 20 µM to 1 nM (20 µM, 6.7 µM, 2.2 µM, 0.74 µM, 0.25 µM, 82 nM, 27 nM, 9.2 nM, 3.1 nM and 1 nM; dilution series prepared before the assay at the level of the 100-fold conc. stock solutions by serial 1:3 dilutions in 100% DMSO) in duplicate values for each concentration. By using an in-house software, the IC50 values were calculated by a 4 parameter fit. The data reveal that the compounds of the present invention have antagonist activities on the human GnRH receptor. Within the meaning of the present invention the antagonist activity is reflected by the ability of a compound of the invention to antagonize human GnRH receptor stimulation in IP-One HTRF® assay at least three times the standard deviation over the background level.

Compound | IC50 [nM]
COC(=O)c1cccc(S(=O)(=O)N2c3ccc(C(=O)NCc4ncccc4C(F)(F)F)cc3C3(CCC(O)(C(F)(F)F)CC3)C2C2CC2)c1 (centres unmarked) [Example 29, methyl 3-{[2'-cyclopropyl-4-hydroxy-4-(trifluoromethyl)-5'-({[3-(trifluoromethyl)pyridin-2-yl]methyl}carbamoyl)spiro[cyclohexane-1,3'-indol]-1'(2'H)-yl]sulfonyl}benzoate] | 612
O=C(NCc1ncccc1Cl)c1ccc2c(c1)C1(CCC(O)(C(F)(F)F)CC1)C(C1CC1)N2S(=O)(=O)c1ccc(F)cc1 (racemic) [Example 1, N-[(3-chloropyridin-2-yl)methyl]-2'-cyclopropyl-1'-[(4-fluorophenyl)sulfonyl]-4-hydroxy-4-(trifluoromethyl)-1',2'-dihydrospiro[cyclohexane-1,3'-indole]-5'-carboxamide] | 354
O=C(Nc1cncc(C(F)(F)F)c1)c1ccc2c(c1)C1(CCC(O)(C(F)(F)F)CC1)C(C1CC1)N2S(=O)(=O)c1ccc(F)cc1 (centres unmarked) [Example 58, 2'-cyclopropyl-1'-[(4-fluorophenyl)sulfonyl]-4-hydroxy-4-(trifluoromethyl)-N-[5-(trifluoromethyl)pyridin-3-yl]-1',2'-dihydrospiro[cyclohexane-1,3'-indole]-5'-carboxamide] | 3120
O=C(O)c1cccc(S(=O)(=O)N2c3ccc(C(=O)NCc4ncccc4C(F)(F)F)cc3C3(CCC(O)(C(F)(F)F)CC3)C2C2CC2)c1 (centres unmarked) [Example 50, 3-{[2'-cyclopropyl-4-hydroxy-4-(trifluoromethyl)-5'-({[3-(trifluoromethyl)pyridin-2-yl]methyl}carbamoyl)spiro[cyclohexane-1,3'-indol]-1'(2'H)-yl]sulfonyl}benzoic acid] | 3070
O=C1CCC2(CC1)c1cc(C(=O)NCc3ccccc3Cl)ccc1N(S(=O)(=O)c1ccc(F)cc1)C2C1CC1 (racemic) [Example 3, N-(2-chlorobenzyl)-2'-cyclopropyl-1'-[(4-fluorophenyl)sulfonyl]-4-oxo-1',2'-dihydrospiro[cyclohexane-1,3'-indole]-5'-carboxamide] | 46.8
O=C(O)c1cccc(S(=O)(=O)N2c3ccc(C(=O)NCc4ncc(C(F)(F)F)cc4F)cc3C3(CCC(O)(C(F)(F)F)CC3)C2C2CC2)c1 (centres unmarked) [Example 49, 3-{[2'-cyclopropyl-5'-({[3-fluoro-5-(trifluoromethyl)pyridin-2-yl]methyl}carbamoyl)-4-hydroxy-4-(trifluoromethyl)spiro[cyclohexane-1,3'-indol]-1'(2'H)-yl]sulfonyl}benzoic acid] | 4300
O=C(NCc1ccc(F)cc1Cl)c1ccc2c(c1)C1(CCC(O)(C(F)(F)F)CC1)C(C1CC1)N2S(=O)(=O)c1ccc(F)cc1 (centres unmarked) [Example 60, N-(2-chloro-4-fluorobenzyl)-2'-cyclopropyl-1'-[(4-fluorophenyl)sulfonyl]-4-hydroxy-4-(trifluoromethyl)-1',2'-dihydrospiro[cyclohexane-1,3'-indole]-5'-carboxamide] | 432
COC(=O)c1cccc(NC(=O)c2ccc3c(c2)C2(CCC(O)(C(F)(F)F)CC2)C(C2CC2)N3S(=O)(=O)c2ccc(F)cc2)c1 (single isomer, unassigned) [Example 30-2] | 1590
O=C(NCc1ncccc1C(F)(F)F)c1ccc2c(c1)C1(CCC(O)(C(F)(F)F)CC1)C(C1CC1)N2S(=O)(=O)c1ccc(F)cc1 (single isomer, unassigned) [Example 65-2] | 116
O=C(NCc1ncc(C(F)(F)F)cc1F)c1ccc2c(c1)C1(CCC(O)(C(F)(F)F)CC1)C(C1CC1)N2S(=O)(=O)c1cccc(C(=O)N2CCC2)c1 (centres unmarked) [Example 63, 1'-{[3-(azetidin-1-ylcarbonyl)phenyl]sulfonyl}-2'-cyclopropyl-N-{[3-fluoro-5-(trifluoromethyl)pyridin-2-yl]methyl}-4-hydroxy-4-(trifluoromethyl)-1',2'-dihydrospiro[cyclohexane-1,3'-indole]-5'-carboxamide] | 3210
O=C(NCC1CCCCC1)c1ccc2c(c1)C1(CCC(O)(C(F)(F)F)CC1)C(C1CC1)N2S(=O)(=O)c1ccc(F)cc1 (centres unmarked) [Example 61, N-(cyclohexylmethyl) -2'-cyclopropyl-1'-[(4-fluorophenyl)sulfonyl]-4-hydroxy-4-(trifluoromethyl)-1',2'-dihydrospiro[cyclohexane-1,3'-indole]-5'-carboxamide] | 741
COc1cccc(S(=O)(=O)N2c3ccc(C(=O)NCC4CCCCC4)cc3C3(CCC(O)(C(F)(F)F)CC3)C2C2CC2)c1 (centres unmarked) [Example 42, N-(cyclohexylmethyl) -2'-cyclopropyl-4-hydroxy-1'-[(3-methoxyphenyl)su Ifonyl]-4-(trifluoromethyl)-1',2'-dihydrospiro[cyclohexane-1,3'-indole]-5'-carboxamide] | 1880
CC(C)=CCC1N(S(=O)(=O)c2ccc(F)cc2)c2ccc(C(=O)NCc3ccccc3Cl)cc2C12CCC(O)(C(F)(F)F)CC2 (centres unmarked) [Example 22, N-(2-chlorobenzyl)-1'-[(4-fluorophenyl)sulfonyl]-4-hydroxy-2'-(3-methylbut-2-en-1-yl)-4-(trifluoromethyl)-1',2'-dihydrospiro[cyclohexane-1,3'-indole]-5'-carboxamide] | 745
O=C(NCC1CC1)c1ccc2c(c1)C1(CCC(O)(C(F)(F)F)CC1)C(C1CC1)N2S(=O)(=O)c1ccc(F)cc1 (centres unmarked) [Example 59, 2'-cyclopropyl-N-(cyclopropylmethyl)-1'-[(4-fluorophenyl)sulfonyl]-4-hydroxy-4-(trifluoromethyl)-1',2'-dihydrospiro[cyclohexane-1,3'-indole]-5'-carboxamide] | 690
COc1cccc(S(=O)(=O)N2c3ccc(C(=O)Nc4cccc(S(C)(=O)=O)c4)cc3C3(CCC(O)(C(F)(F)F)CC3)C2C2CC2)c1 (centres unmarked) [Example 36, 2'-cyclopropyl-4-hydroxy-1'-[(3-methoxyphenyl)su Ifonyl]-N-[3-(methylsulfonyl)phenyl]-4-(trifluoromethyl)-1',2'-dihydrospiro[cyclohexane-1,3'-indole]-5'-carboxamide] | 1270
CC(C)=CCC1N(S(=O)(=O)c2ccc(F)cc2)c2ccc(C(=O)Nc3cncc(C)c3)cc2C12CCC(O)(C(F)(F)F)CC2 (centres unmarked) [Example 18, 1'-[(4-fluorophenyl)sulfonyl]-4-hydroxy-2'-(3-methylbut-2-en-1-yl)-N-(5-methylpyridin-3-yl)-4-(trifluoromethyl)-1',2'-dihydrospiro[cyclohexane-1,3'-indole]-5'-carboxamide] | 1840
NS(=O)(=O)c1cccc(NC(=O)c2ccc3c(c2)C2(CCC(O)(C(F)(F)F)CC2)C(C2CC2)N3S(=O)(=O)c2ccc(F)cc2)c1 (centres unmarked) [Example 47, 2'-cyclopropyl-1 [(4-fluorophenyl)sulfonyl]-4-hydroxy-N-(3-sulfamoylphenyl)-4-(trifluoromethyl)-1',2'-dihydrospiro[cyclohexane-1,3'-indole]-5'-carboxamide] | 618
